Measured values reported in patent US11267825B2 (AICURIS GMBH & CO. KG, priority 2017, dated 2022).
pEC50, pIC50: −log10 of the molar value.

What was measured:
[1] = system: HBV; assay: Determination of HBV DNA from the supernatants of HepAD38 cells (anti-HBV activity); format: cell-based, hepatitis B virus; details: Hepatitis B virus, 144 h; HBV DNA in HepAD38 supernatant at day 6; read-out: Cell Activity (EC50)
How it was run: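 EC50 values were obtained by non-linear regression of HBV DNA copy numbers measured by qPCR against pCH-9/3091 plasmid standards. The DNA came from filtered supernatants collected on day 6. Before that, tetracycline-withdrawn HepAD38 cells had been exposed to serial half-log compound dilutions, with tetracycline-treated cells as the non-producing control.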

[2] = biological target: HBV core protein (UniProt P03146); format: biochemical; details: read-out: Assembly Activity (IC50); BODIPY-FL labelled core protein, assembly started with NaCl, read after 6 min
How it was run: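 Compounds tested at 8 concentrations in 0.5-log steps from 100, 31.6 or 10 μM against 1.0–2.0 μM BODIPY-FL-labelled Cys150 core dimers (residues 1–149), 50 mM HEPES pH 7.5. NaCl ([…] final) triggered assembly; quenching read at 6 min, 477/525 nm, with 2.5 M and 0 M NaCl as controls; EC50 by nonlinear fit.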

Sequence of HBV core protein (P03146 whole entry, looked up, the tested form may be a part): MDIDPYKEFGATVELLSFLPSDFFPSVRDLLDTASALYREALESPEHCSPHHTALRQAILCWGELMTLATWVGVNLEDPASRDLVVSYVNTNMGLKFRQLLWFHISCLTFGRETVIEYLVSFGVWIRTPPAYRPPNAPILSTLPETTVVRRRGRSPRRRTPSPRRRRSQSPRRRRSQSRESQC

Row | SMILES | pEC50 [1] | pIC50 [2]
1 | O=C(c1cc2cc(F)c(Cl)cc2[nH]1)N1CCc2nc(NCC3CCOC3)sc2C1 (stereo not shown) [Example 239, 5-(6-chloro-5-fluoro-1H-indole-2-carbonyl)-N-[(oxolan-3-yl)methyl]-4H,5H,6H,7H-[1,3]thiazolo[5,4-c]pyridin-2-amine] | > 6.00 | > 5.30
2 | Nc1nc2c(s1)CN(C(=O)c1cc3c(Br)c(F)ccc3[nH]1)CC2 [Example 130, 5-(4-bromo-5-fluoro-1H-indole-2-carbonyl)-4H,5H,6H,7H-[1,3]thiazolo[5,4-c]pyridin-2-amine] | 5.00 to 6.00 | > 4.00
3 | Nc1nc2c(s1)CN(C(=O)c1cc3c(F)ccc(F)c3[nH]1)CC2 [Example 170, 5-(4,7-difluoro-1H-indole-2-carbonyl)-4H,5H,6H,7H-[1,3]thiazolo[5,4-c]pyridin-2-amine] | > 6.00 | > 5.30
4 | CC1CC1C(=O)Nc1nc2c(s1)CN(C(=O)c1cc3ccccc3[nH]1)CC2 (stereo not shown) [Example 268, N-[5-(1H-indole-2-carbonyl)-4H,5H,6H,7H-[1,3]thiazolo[5,4-c]pyridin-2-yl]-2-methylcyclopropane-1-carboxamide] | > 6.00 | 5.00 to 5.30
5 | Nc1nc2c(s1)CN(C(=O)c1cc3c(C(F)F)ccc(F)c3[nH]1)CC2 [Example 341, 5-[4-(difluoromethyl)-7-fluoro-1H-indole-2-carbonyl]-4H,5H,6H,7H-[1,3]thiazolo[5,4-c]pyridin-2-amine] | 5.00 to 6.00 | > 5.30
6 | CCc1cccc2[nH]c(C(=O)N3CCc4nc(NCC5CCOC5)sc4C3)cc12 (stereo not shown) [Example 115, 5-(4-ethyl-1H-indole-2-carbonyl)-N-[(oxolan-3-yl)methyl]-4H,5H,6H,7H-[1,3]thiazolo[5,4-c]pyridin-2-amine] | > 6.00 | > 5.30
7 | CCc1cccc2[nH]c(C(=O)N3CCc4nc(NC5(CO)CCC5)sc4C3)cc12 [Example 300, (1-{[5-(4-ethyl-1H-indole-2-carbonyl)-4H,5H,6H,7H-[1,3]thiazolo[5,4-c]pyridin-2-yl]amino}cyclobutyl)methanol] | > 6.00 | > 5.30
8 | CNC(=O)Nc1nc2c(s1)CN(C(=O)c1cc3c(Cl)cc(F)cc3[nH]1)CC2 [Example 266, 1-[5-(4-chloro-6-fluoro-1H-indole-2-carbonyl)-4H,5H,6H,7H-[1,3]thiazolo[5,4-c]pyridin-2-yl]-3-methylurea] | > 6.00 | > 5.30
9 | CC(C)(C)OC(=O)N1CCC(O)(CNc2nc3c(s2)CN(C(=O)c2cc4ccccc4[nH]2)CC3)CC1 [Example 219, tert-butyl 4-hydroxy-4-({[5-(1H-indole-2-carbonyl)-4H,5H,6H,7H-[1,3]thiazolo[5,4-c]pyridin-2-yl]amino}methyl)piperidine-1-carboxylate] | > 6.00 | 5.00 to 5.30
10 | O=C(c1cc2ccccc2[nH]1)N1CCc2nc(NCC(CO)CC3CCOCC3)sc2C1 (stereo not shown) [Example 226, 3-{[5-(1H-indole-2-carbonyl)-4H,5H,6H,7H-[1,3]thiazolo[5,4-c]pyridin-2-yl]amino}-2-[(oxan-4-yl)methyl]propan-1-ol] | > 6.00 | > 5.30
11 | O=C(CC(F)(F)F)Nc1nc2c(s1)CN(C(=O)c1cc3ccccc3[nH]1)CC2 [Example 61, 3,3,3-trifluoro-N-[5-(1H-indole-2-carbonyl)-4H,5H,6H,7H-[1,3]thiazolo[5,4-c]pyridin-2-yl]propanamide] | > 6.00 | 5.00 to 5.30
12 | COC1CCC(Nc2nc3c(s2)CN(C(=O)c2cc4ccccc4[nH]2)CC3)CC1 (stereo not shown) [Example 310, 5-(1H-indole-2-carbonyl)-N-(4-methoxycyclohexyl)-4H,5H,6H,7H-[1,3]thiazolo[5,4-c]pyridin-2-amine] | > 6.00 | 5.00 to 5.30
13 | CCc1cccc2[nH]c(C(=O)N3CCc4nc(N[C@H]5CC[C@@H](O)CC5)sc4C3)cc12 [Example 335, (1s,4s)-4-{[5-(4-ethyl-1H-indole-2-carbonyl)-4H,5H,6H,7H-[1,3]thiazolo[5,4-c]pyridin-2-yl]amino}cyclohexan-1-ol] | > 6.00 | > 5.30
14 | O=C(c1cc2ccccc2[nH]1)N1CCc2nc(NCC3CC3)sc2C1 [Example 96, N-(cyclopropylmethyl)-5-(1H-indole-2-carbonyl)-4H,5H,6H,7H-[1,3]thiazolo[5,4-c]pyridin-2-amine] | > 6.00 | > 5.30
15 | O=C(c1cc2cc(F)c(Cl)cc2[nH]1)N1CCc2nc(NCC3(CO)CC3)sc2C1 [Example 234, [1-({[5-(6-chloro-5-fluoro-1H-indole-2-carbonyl)-4H,5H,6H,7H-[1,3]thiazolo[5,4-c]pyridin-2-yl]amino}methyl)cyclopropyl]methanol] | > 6.00 | > 5.30
16 | Cc1cc(Cl)cc2cc(C(=O)N3CCc4nc(N)sc4C3)[nH]c12 [Example 139, 5-(5-chloro-7-methyl-1H-indole-2-carbonyl)-4H,5H,6H,7H-[1,3]thiazolo[5,4-c]pyridin-2-amine] | > 4.00 | > 4.00

Row | SMILES | pEC50 [1] | pIC50 [2]
17 | CCc1cccc2[nH]c(C(=O)N3CCc4nc(N)sc4C3)cc12 [Example 81, 5-(4-ethyl-1H-indole-2-carbonyl)-4H,5H,6H,7H-[1,3]thiazolo[5,4-c]pyridin-2-amine] | > 6.00 | > 5.30
18 | Nc1nc2c(s1)CN(C(=O)c1cc3ccc(Br)cc3[nH]1)CC2 [Example 92, 5-(6-bromo-1H-indole-2-carbonyl)-4H,5H,6H,7H-[1,3]thiazolo[5,4-c]pyridin-2-amine] | > 6.00 | > 5.30
19 | CC1c2sc(N)nc2CCN1C(=O)c1cc2ccccc2[nH]1 (stereo not shown) [Example 109, 5-(1H-indole-2-carbonyl)-4-methyl-4H,5H,6H,7H-[1,3]thiazolo[5,4-c]pyridin-2-amine] | > 4.00 | > 4.00
20 | O=C(Nc1nc2c(s1)CN(C(=O)c1cc3ccccc3[nH]1)CC2)C1CCOCC1 [Example 2, N-[5-(1H-indole-2-carbonyl)-4H,5H,6H,7H-[1,3]thiazolo[5,4-c]pyridin-2-yl]oxane-4-carboxamide] | > 6.00 | > 5.30
21 | O=C(c1cc2c(F)c(F)ccc2[nH]1)N1CCc2nc(NC3(CO)CCC3)sc2C1 [Example 222, (1-{[5-(4,5-difluoro-1H-indole-2-carbonyl)-4H,5H,6H,7H-[1,3]thiazolo[5,4-c]pyridin-2-yl]amino}cyclobutyl)methanol] | > 6.00 | > 5.30
22 | N#Cc1cc(F)cc2[nH]c(C(=O)N3CCc4nc(N)sc4C3)cc12 [Example 77, 2-{2-amino-4H,5H,6H,7H-[1,3]thiazolo[5,4-c]pyridine-5-carbonyl}-6-fluoro-1H-indole-4-carbonitrile] | > 6.00 | > 5.30
23 | CC(=O)NNc1nc2c(s1)CN(C(=O)c1cc3ccccc3[nH]1)CC2 [Example 58, N′-[5-(1H-indole-2-carbonyl)-4H,5H,6H,7H-[1,3]thiazolo[5,4-c]pyridin-2-yl]acetohydrazide] | 5.00 to 6.00 | 5.00 to 5.30
24 | CC(O)c1cc(F)cc2[nH]c(C(=O)N3CCc4nc(NCC5(CO)CC5)sc4C3)cc12 (stereo not shown) [Example 249, 1-{6-fluoro-2-[2-({[1-(hydroxymethyl)cyclopropyl]methyl}amino)-4H,5H,6H,7H-[1,3]thiazolo[5,4-c]pyridine-5-carbonyl]-1H-indol-4-yl}ethan-1-ol] | > 6.00 | 5.00 to 5.30
25 | CN1CCC(C(=O)Nc2nc3c(s2)CN(C(=O)c2cc4ccccc4[nH]2)CC3)CC1 [Example 409, N-[5-(1H-indole-2-carbonyl)-4H,5H,6H,7H-[1,3]thiazolo[5,4-c]pyridin-2-yl]-1-methylpiperidine-4-carboxamide] | > 6.00 | > 5.30
26 | O=C(c1cc2c(C(F)(F)F)cccc2[nH]1)N1CCc2nc(NCC3CCOC3)sc2C1 (stereo not shown) [Example 123, 5-(4-(trifluoromethyl)-1H-indole-2-carbonyl)-N-[(oxolan-3-yl)methyl]-4H,5H,6H,7H-[1,3]thiazolo[5,4-c]pyridin-2-amine] | > 6.00 | 5.00 to 5.30
27 | Cc1nc2c(s1)CN(C(=O)c1cc3cc(F)c(F)cc3[nH]1)CC2 [Example 164] | > 6.00 | > 5.30
28 | O=C(c1cc2ccccc2[nH]1)N1CCc2nc(NC3CCC(O)CC3)sc2C1 (stereo not shown) [Example 67, 4-{[5-(1H-indole-2-carbonyl)-4H,5H,6H,7H-[1,3]thiazolo[5,4-c]pyridin-2-yl]amino}cyclohexan-1-ol] | > 6.00 | > 5.30
29 | O=C(c1cc2c(F)ccc(F)c2[nH]1)N1CCc2nc(NCC3CCOC3)sc2C1 (stereo not shown) [Example 122, 5-(4,7-difluoro-1H-indole-2-carbonyl)-N-[(oxolan-3-yl)methyl]-4H,5H,6H,7H-[1,3]thiazolo[5,4-c]pyridin-2-amine] | > 6.00 | > 5.30
30 | Nc1nc2c(s1)CN(C(=O)c1cc3cc(F)c(F)cc3[nH]1)CC2 [Example 159, 5-(5,6-difluoro-1H-indole-2-carbonyl)-4H,5H,6H,7H-[1,3]thiazolo[5,4-c]pyridin-2-amine] | > 6.00 | > 5.30
31 | O=C(c1cc2ccccc2[nH]1)N1CCc2nc(NC3CCOCC3)sc2C1 [Example 206, 5-(1H-indole-2-carbonyl)-N-(oxan-4-yl)-4H,5H,6H,7H-[1,3]thiazolo[5,4-c]pyridin-2-amine] | > 6.00 | > 5.30
32 | O=C(c1cc2ccccc2[nH]1)N1CCc2nc(NC[C@@H]3COC[C@@H]3O)sc2C1 [Example 241, (3R,4R)-4-({[5-(1H-indole-2-carbonyl)-4H,5H,6H,7H-[1,3]thiazolo[5,4-c]pyridin-2-yl]amino}methyl)oxolan-3-ol] | > 6.00 | > 5.30
